Laboratory results published in the NIST ThermoML archive (doi:10.1021/je700260f).

Settings: 293.15 K, Liquid, Vibrating tube method

FC(C(F)(F)F)C(F)(F)F [1,1,1,2,3,3,3-heptafluoropropane]
Settings	mass density [kg/m3]
6323 kPa	1446.4
6351 kPa	1446.6
6375 kPa	1446.8
6408 kPa	1446.9
6437 kPa	1447
6477 kPa	1447.3
6508 kPa	1447.5
6534 kPa	1447.6
6566 kPa	1447.6
6593 kPa	1447.9
6624 kPa	1448.1
6655 kPa	1448.4
6682 kPa	1448.4
6721 kPa	1448.5
6752 kPa	1448.8
6792 kPa	1449
6823 kPa	1449.3
6862 kPa	1449.5
6885 kPa	1449.5
6918 kPa	1449.8
6944 kPa	1449.9
6979 kPa	1450
7002 kPa	1450.1
7034 kPa	1450.4
7074 kPa	1450.7
7106 kPa	1450.7
7134 kPa	1450.8
7160 kPa	1450.9
7196 kPa	1451.2
7223 kPa	1451.4
7255 kPa	1451.5
7292 kPa	1451.6
7319 kPa	1451.9
7352 kPa	1452
7380 kPa	1452.1
7413 kPa	1452.4
7445 kPa	1452.6
7478 kPa	1452.7
7506 kPa	1452.9
7543 kPa	1453.2
7575 kPa	1453.2
7829 kPa	1454.6
8576 kPa	1458.4
8615 kPa	1458.6
8640 kPa	1458.7
8669 kPa	1458.9
8716 kPa	1459.1
8745 kPa	1459.3
8774 kPa	1459.5
8814 kPa	1459.7
8862 kPa	1459.9
8888 kPa	1460
8923 kPa	1460.2
8958 kPa	1460.4
8988 kPa	1460.5
9023 kPa	1460.7
9057 kPa	1461
9081 kPa	1461.1
9121 kPa	1461.1
9156 kPa	1461.3
9182 kPa	1461.5
9258 kPa	1461.9
9989 kPa	1465.5
10025 kPa	1465.7
10056 kPa	1465.8
10087 kPa	1465.9
10128 kPa	1466.3
10154 kPa	1466.4
10195 kPa	1466.7
10240 kPa	1466.8
10275 kPa	1466.7
10316 kPa	1467.1
10555 kPa	1468.1
10597 kPa	1468.5
10638 kPa	1468.7
10669 kPa	1468.7
10706 kPa	1469
10738 kPa	1469.2
10775 kPa	1469.4
10808 kPa	1469.4
10851 kPa	1469.6
10882 kPa	1469.7
10920 kPa	1470
10958 kPa	1470.2
11044 kPa	1470.6
11082 kPa	1470.6
11132 kPa	1470.9
11159 kPa	1471.4
11209 kPa	1471.3
11254 kPa	1471.6
11292 kPa	1471.8
11324 kPa	1471.9
11368 kPa	1472.1
11401 kPa	1472.3
11439 kPa	1472.4
11473 kPa	1472.6
11518 kPa	1472.8
11556 kPa	1472.9
11601 kPa	1473.2
11629 kPa	1473.3
11668 kPa	1473.4
11713 kPa	1473.7
11752 kPa	1473.8
